According to US8957238B2, “Process for preparing malathion for pharmaceutical use” (priority 2005, dated 2015):
Where two headings read alike, the source gives them in different places.

Experiments:
cholinesterase enzymes = settings: cited from earlier work
[1] = can cause death from hypoxia; cited from earlier work
mice = settings: after storage for 6 months at 40° C.; cited from earlier work
[2] = cited from earlier work
acetylcholinesterase = acetylcholinesterase (Homo sapiens, UniProt P22303); settings: cited from earlier work
people = settings: after spraying during insect eradication programs; cited from earlier work
[3] = Storage stability of malathion prepared by the process of the invention, HPLC after storage (Example 7, Table IV); format: physicochemical
Method: The malathion prepared by the process of the invention was tested for storage stability. Malathion prepared by the process of the invention was stored under a variety of different temperature and humidity conditions for up to three (3) months. […] The purity of the sample was determined after storage using HPLC.
Table IV presents the analytical data showing storage of two, different batches of malathion after storage under a variety of different conditions.
MeOOSPO, MeOSSPO, malaxon, MeOOSPS, diethyl fumarate, dimethyl malathion, methyl malathion, O,O-methyl, ethyl S-(1,2-dicarboethoxy)ethyl phosphorodithioate, tetraethyl dithiosuccinate, isomalathion, malathion carboxylic acids, mercaptosuccinate and the tetraethyl thiodisuccinate were assayed for by HPLC. The mobile phase was a mixture of water, acetonitrile and methanol (480:370:150) and one drop of 85% phosphoric acid for each […] of mobile phase. Method validation was performed and system reproducibility, linearity, repeatability, intermediate precision, recovery of related compounds and sensitivity were assessed according to standard methology (U.S. Pharmacopeia, 2004, U.S. Pharmacopeial Convention, Inc., 12601 Twinbrook Parkway, Rockville, Md. 20852). If necessary, the mobile phase composition and/or flow rate were adjusted to meet the chromatographic parameters.

[4] = Storage at 25° C., 60% relative humidity for 3 months
[5] = Storage at 30° C. and 60% relative humidity for 3 months
[6] = Storage at 40° C. and 75% relative humidity for 3 months

Chain of acetylcholinesterase (P22303 32-614): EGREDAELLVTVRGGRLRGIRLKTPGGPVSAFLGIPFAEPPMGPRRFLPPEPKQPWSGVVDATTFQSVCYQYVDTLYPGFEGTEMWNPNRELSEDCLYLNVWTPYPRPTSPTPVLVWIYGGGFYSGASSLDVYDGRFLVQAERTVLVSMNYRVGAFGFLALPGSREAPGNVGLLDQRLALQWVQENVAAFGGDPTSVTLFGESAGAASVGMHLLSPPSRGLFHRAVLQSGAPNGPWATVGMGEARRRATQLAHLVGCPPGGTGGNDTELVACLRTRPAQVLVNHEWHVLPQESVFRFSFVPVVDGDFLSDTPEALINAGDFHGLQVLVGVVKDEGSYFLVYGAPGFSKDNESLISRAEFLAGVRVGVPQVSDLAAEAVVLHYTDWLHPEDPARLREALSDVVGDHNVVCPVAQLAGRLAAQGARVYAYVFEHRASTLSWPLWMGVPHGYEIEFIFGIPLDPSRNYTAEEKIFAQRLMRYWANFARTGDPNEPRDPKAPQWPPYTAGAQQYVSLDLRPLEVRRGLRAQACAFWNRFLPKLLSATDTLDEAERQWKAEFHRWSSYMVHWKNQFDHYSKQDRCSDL

CCOC(=O)CC(SP(=O)(OC)OC)C(=O)OCC (centres unmarked) [Malaoxon]
inhibition of cholinesterase enzymes (cholinesterase enzymes): inhibits cholinesterase enzymes

CCOC(=O)CC(SP(=S)(OC)OCC)C(=O)OCC (stereo not drawn) [O,O-methyl,ethyl-S-(1,2-dicarboethoxy)ethyl-phosphorodithioate]
pulmonary toxicity [1]: exhibit pulmonary toxicity

CCOC(=O)CC(SP(=S)(OC)OC)C(=O)OCC (centres unmarked) [malathion, [(dimethoxyphosphinothioyl)thio]butanedioic acid diethyl ester]
increase in toxicity as measured by LD50 in mice (mice): 35% | isomalathion content of malathion ([2]; after storage for 6 months at 40° C.): 0.45% | isomalathion content of malathion ([2]; before storage): 0.2%

CCOC(=O)CC(SP(=O)(OC)SC)C(=O)OCC (centres unmarked) [Isomalathion]
pulmonary toxicity [1]: exhibit pulmonary toxicity | activity against acetylcholinesterase as compared with malathion (acetylcholinesterase): approximately 1,000 times | death in people (people): cause death in people

COP(=O)(OC)SC [MeOOSPO, O,O,S-trimethyl phosphorothioate]
pulmonary toxicity [1]: exhibit pulmonary toxicity

CCOC(=O)CC(SP(=S)(OC)OC)C(=O)OCC (centres unmarked) [Batch II, [(dimethoxyphosphinothioyl)thio]butanedioic acid diethyl ester]
Diethyl fumarate in malathion ([3]; Baseline, time 0): <0.06 % (w/w) | Dimethyl malathion in malathion ([3]; Baseline, time 0): <0.02 % (w/w) | Malaoxon in malathion ([3]; Baseline, time 0): <0.05 % (w/w) | Malathion Purity ([3]; Baseline, time 0): 99.5 % (w/w) | MeOOSPO in malathion ([3]; Baseline, time 0): <0.04 % (w/w) | MeOOSPS in malathion ([3]; Baseline, time 0): 0.09 % (w/w) | MeOSSPO in malathion ([3]; Baseline, time 0): <0.02 % (w/w) | Methyl malathion in malathion ([3]; Baseline, time 0): 0.08 % (w/w) | Diethyl fumarate in malathion ([3]; Storage at 5° C. for 3 months): <0.01 % (w/w) | Dimethyl malathion in malathion ([3]; Storage at 5° C. for 3 months): <0.02 % (w/w) | Malaoxon in malathion ([3]; Storage at 5° C. for 3 months): <0.05 % (w/w) | Malathion Purity ([3]; Storage at 5° C. for 3 months): 99.7 % (w/w) | MeOOSPO in malathion ([3]; Storage at 5° C. for 3 months): <0.04 % (w/w) | MeOOSPS in malathion ([3]; Storage at 5° C. for 3 months): 0.1 % (w/w) | MeOSSPO in malathion ([3]; Storage at 5° C. for 3 months): <0.09 % (w/w) | Methyl malathion in malathion ([3]; Storage at 5° C. for 3 months): 0.07 % (w/w) | Diethyl fumarate in malathion [3, 4]: <0.01 % (w/w) | Dimethyl malathion in malathion [3, 4]: <0.02 % (w/w) | Malaoxon in malathion [3, 4]: <0.05 % (w/w) | Malathion Purity [3, 4]: 99.4 % (w/w) | MeOOSPO in malathion [3, 4]: <0.04 % (w/w) | MeOOSPS in malathion [3, 4]: 0.09 % (w/w) | MeOSSPO in malathion [3, 4]: <0.02 % (w/w) | Methyl malathion in malathion [3, 4]: 0.07 % (w/w) | Diethyl fumarate in malathion [3, 5]: <0.01 % (w/w) | Dimethyl malathion in malathion [3, 5]: <0.02 % (w/w) | Malaoxon in malathion [3, 5]: <0.05 % (w/w) | Malathion Purity [3, 5]: 99.1 % (w/w) | MeOOSPO in malathion [3, 5]: <0.04 % (w/w) | MeOOSPS in malathion [3, 5]: 0.1 % (w/w) | MeOSSPO in malathion [3, 5]: <0.02 % (w/w) | Methyl malathion in malathion [3, 5]: 0.08 % (w/w) | Diethyl fumarate in malathion [3, 6]: <0.02 % (w/w) | Dimethyl malathion in malathion [3, 6]: <0.02 % (w/w) | Malaoxon in malathion [3, 6]: <0.05 % (w/w) | Malathion Purity [3, 6]: 97.4 % (w/w) | MeOOSPO in malathion [3, 6]: 0.05 % (w/w) | MeOOSPS in malathion [3, 6]: 0.2 % (w/w) | MeOSSPO in malathion [3, 6]: <0.02 % (w/w) | Methyl malathion in malathion [3, 6]: 0.08 % (w/w)

CCOC(=O)CC(SP(=S)(OC)OC)C(=O)OCC (centres unmarked) [Batch I, [(dimethoxyphosphinothioyl)thio]butanedioic acid diethyl ester]
Diethyl fumarate in malathion ([3]; Baseline, time 0): <0.01 % (w/w) | Dimethyl malathion in malathion ([3]; Baseline, time 0): <0.02 % (w/w) | Malaoxon in malathion ([3]; Baseline, time 0): <0.05 % (w/w) | Malathion Purity ([3]; Baseline, time 0): 99.5 % (w/w) | MeOOSPO in malathion ([3]; Baseline, time 0): <0.04 % (w/w) | MeOOSPS in malathion ([3]; Baseline, time 0): 0.1 % (w/w) | MeOSSPO in malathion ([3]; Baseline, time 0): <0.02 % (w/w) | Methyl malathion in malathion ([3]; Baseline, time 0): 0.06 % (w/w) | Diethyl fumarate in malathion ([3]; Storage at 5° C. for 3 months): <0.01 % (w/w) | Dimethyl malathion in malathion ([3]; Storage at 5° C. for 3 months): <0.02 % (w/w) | Malaoxon in malathion ([3]; Storage at 5° C. for 3 months): <0.02 % (w/w) | Malathion Purity ([3]; Storage at 5° C. for 3 months): 99.7 % (w/w) | MeOOSPO in malathion ([3]; Storage at 5° C. for 3 months): <0.04 % (w/w) | MeOOSPS in malathion ([3]; Storage at 5° C. for 3 months): 0.1 % (w/w) | MeOSSPO in malathion ([3]; Storage at 5° C. for 3 months): <0.02 % (w/w) | Methyl malathion in malathion ([3]; Storage at 5° C. for 3 months): 0.06 % (w/w) | Diethyl fumarate in malathion [3, 4]: <0.01 % (w/w) | Dimethyl malathion in malathion [3, 4]: <0.02 % (w/w) | Malaoxon in malathion [3, 4]: <0.02 % (w/w) | Malathion Purity [3, 4]: 99.0 % (w/w) | MeOOSPO in malathion [3, 4]: <0.04 % (w/w) | MeOOSPS in malathion [3, 4]: 0.1 % (w/w) | MeOSSPO in malathion [3, 4]: <0.02 % (w/w) | Methyl malathion in malathion [3, 4]: 0.06 % (w/w) | Diethyl fumarate in malathion [3, 5]: <0.01 % (w/w) | Dimethyl malathion in malathion [3, 5]: <0.02 % (w/w) | Malaoxon in malathion [3, 5]: <0.02 % (w/w) | Malathion Purity [3, 5]: 99.0 % (w/w) | MeOOSPO in malathion [3, 5]: <0.04 % (w/w) | MeOOSPS in malathion [3, 5]: 0.1 % (w/w) | MeOSSPO in malathion [3, 5]: <0.02 % (w/w) | Methyl malathion in malathion [3, 5]: 0.06 % (w/w) | Diethyl fumarate in malathion [3, 6]: <0.02 % (w/w) | Dimethyl malathion in malathion [3, 6]: <0.02 % (w/w) | Malaoxon in malathion [3, 6]: <0.05 % (w/w) | Malathion Purity [3, 6]: 97.5 % (w/w) | MeOOSPO in malathion [3, 6]: 0.05 % (w/w) | MeOOSPS in malathion [3, 6]: 0.2 % (w/w) | MeOSSPO in malathion [3, 6]: <0.02 % (w/w) | Methyl malathion in malathion [3, 6]: 0.06 % (w/w)
